Measured values: the NIST ThermoML archive (doi:10.1016/j.fluid.2006.01.026)
Numbers after ± are expanded uncertainties.

Conditions: 101.33 kPa, Liquid; for viscosity: Capillary tube (Ostwald / Ubbelohde) method; for mass density: Vibrating tube method

viscosity (283.15 K)	viscosity (293.15 K)	viscosity (303.15 K)	viscosity (313.15 K)	viscosity (323.15 K)	viscosity (333.15 K)	viscosity (343.15 K)	viscosity (353.15 K)	viscosity (363.15 K)	viscosity (373.15 K)	mass density (283.15 K)	mass density (298.15 K)	mass density (323.15 K)	mass density (348.15 K)	Compound
1021 ± 110 mPa·s	444 ± 48 mPa·s	218 ± 23 mPa·s	119 ± 12 mPa·s	71.2 ± 7.2 mPa·s	45.9 ± 4.6 mPa·s	31.6 ± 3.2 mPa·s	22.9 ± 2.3 mPa·s	17.3 ± 1.7 mPa·s	13.5 ± 1.4 mPa·s	–	–	–	–	CCCCn1cc[n+](C)c1.O=S(=O)([O-])C(F)(F)C(F)OC(F)(F)C(F)(F)F (stereo not drawn)
853 ± 94 mPa·s	378 ± 40 mPa·s	192 ± 20 mPa·s	108 ± 11 mPa·s	66.8 ± 6.8 mPa·s	44.2 ± 4.5 mPa·s	30.8 ± 3.1 mPa·s	22.3 ± 2.2 mPa·s	16.6 ± 1.7 mPa·s	12.5 ± 1.3 mPa·s	–	–	–	–	CCCC[n+]1ccn(C)c1.O=S(=O)([O-])C(F)(F)C(F)C(F)(F)F (stereo not drawn)
2512 ± 300 mPa·s	1103 ± 120 mPa·s	539 ± 58 mPa·s	289 ± 30 mPa·s	167 ± 17 mPa·s	103 ± 10 mPa·s	66.6 ± 6.7 mPa·s	45 ± 4.5 mPa·s	31.5 ± 3.2 mPa·s	22.6 ± 2.3 mPa·s	1082 ± 2 kg/m3	1070 ± 2 kg/m3	1052 ± 2 kg/m3	1034 ± 2 kg/m3	CCCCCCCCCCCCCC[P+](CCCC)(CCCC)CCCC.O=S(=O)([O-])C(F)(F)C(F)C(F)(F)F
1319 ± 150 mPa·s	625 ± 68 mPa·s	330 ± 35 mPa·s	191 ± 20 mPa·s	118 ± 12 mPa·s	77.4 ± 7.8 mPa·s	52.9 ± 5.3 mPa·s	37.2 ± 3.8 mPa·s	26.7 ± 2.7 mPa·s	19.3 ± 1.9 mPa·s	1075 ± 2 kg/m3	1063 ± 2 kg/m3	1044 ± 2 kg/m3	1025 ± 2 kg/m3	CCCCCCCCCCCCCC[P+](CCCCCC)(CCCCCC)CCCCCC.O=S(=O)([O-])C(F)(F)C(F)OC(F)(F)C(F)(F)F
626 ± 68 mPa·s	298 ± 31 mPa·s	159 ± 16 mPa·s	93 ± 9 mPa·s	59 ± 6 mPa·s	39.8 ± 4 mPa·s	28.2 ± 2.8 mPa·s	20.7 ± 2.1 mPa·s	15.6 ± 1.6 mPa·s	11.9 ± 1.2 mPa·s	–	–	–	–	CCCCn1cc[n+](C)c1.O=S(=O)([O-])C(F)(F)C(F)OC(F)(F)F (stereo not drawn)
